pIC50: −log10 of the molar value.
Target: Phospholipase A2 (Homo sapiens, UniProt P04054)
Assay: Phospholipase A2 Vesicle Assay
Conditions: pH 9; 40 °C
From the text: Inhibition assay using phospholipase A2.

Sequence of Phospholipase A2 (P04054 whole entry): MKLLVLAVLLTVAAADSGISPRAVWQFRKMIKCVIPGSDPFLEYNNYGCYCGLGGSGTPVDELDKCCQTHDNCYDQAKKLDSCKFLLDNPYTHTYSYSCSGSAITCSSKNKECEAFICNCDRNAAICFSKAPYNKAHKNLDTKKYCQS

pIC50	SMILES
4.59	CC(C)=CCC/C(C)=C/C/C(C=O)=C\CCC1=CC(=O)OC1O (stereo not drawn) [Manoalogue]
4.80	CCCCCCCCCCC/C=C/C(C)(C)/C=C/CCCC(=O)O [7,7-dimethyl-5,8-eicosadienoic acid]

SMILES	pIC50
O=C(CBr)c1ccc(Br)cc1 [2-bromo-1-(4-bromophenyl)ethan-1-one]	3.26

— BindingDB's records for PubMed 2498315 (University of California San Diego, 1989)
